Experimental data as given in patent US10626094B2 (La Jolla Institute of Allergy & Immunology, priority 2014, dated 2020).
Where two headings read alike, the source gives them in different places.

How the values were obtained:
[1] = system: 3T3-L1 cells; assay: insulin-based mouse 3T3-L1 adipogenesis assay (AdipoRed); assay type: cell-based; conditions: 10 μM compound
Protocol: The probe Compound D1 was also profiled in an insulin-based mouse 3T3-L1 adipogenesis assay. In this assay, 3T3-L1 pre-adipocytes are grown to 2-days post-confluence in DMEM with 10% bovine calf serum, and then induced to differentiate to adipocytes following stimulation for 2 days with an induction cocktail containing 1 μg/ml insulin, 1 μM dexamethasone, and 0.5 mM 3-isobutyl-1-methylxanthine in DMEM containing 10% fetal bovine serum (FBS).^44 2 days later, the media is replaced with DMEM with 10% FBS and 1 μg/ml insulin, and after 2 additional days, the media is replaced with DMEM with 10% FBS for 2 additional days, at which point adipogenesis is measured using the AdipoRed Adipogenesis Assay Reagent from Lonza, according to the manufacturer's instructions. In brief, the assay reagent is added to the wells containing cells, where it partitions into the fat droplets of differentiated adipocytes, and emits fluorescence at 572 nm that can be detected with a plate-reader. To test the effect of probe Compound D1, cells were plated into 48-well plates and allowed to grow to confluence. Cells were then treated with 10 μM Compound D1 or 0.025% DMSO, and after 2 days induced to differentiate in the presence of 10 μM Compound D1 or 0.025% DMSO. Fresh compound or DMSO was added during each media replacement.

[2] = biological target: LMPTP-A (Low Molecular Weight Protein Tyrosine Phosphatase-A) enzyme (Homo sapiens (Human), UniProt P24666); assay: LMPTP primary screening / LMPTP (OMFP) enzyme inhibition assay, fluorescence intensity; assay type: biochemical
In short: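 Single-concentration screen, test compounds 20 μM final, […]. Enzyme (0.625 nM) and OMFP (400 μM) react 50 min at room temp, dark, in Bis-Tris buffer pH 6.0 containing DTT 1 mM and Triton X-100 0.01%. Read-out: fluorescence intensity.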

Chain of LMPTP-A (Low Molecular Weight Protein Tyrosine Phosphatase-A) enzyme (P24666 whole entry): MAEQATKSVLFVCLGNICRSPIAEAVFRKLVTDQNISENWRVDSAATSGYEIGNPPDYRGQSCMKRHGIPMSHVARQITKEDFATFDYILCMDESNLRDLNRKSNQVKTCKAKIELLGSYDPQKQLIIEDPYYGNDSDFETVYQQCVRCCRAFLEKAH

COc1ccc(-c2cc(NCCCN3CCCCC3)c3ccccc3n2)cc1 [Compound D1, 2-(4-methoxyphenyl)-N-(3-(piperidin-1-yl)propyl)quinolin-4-amine]
3T3-L1 adipogenesis [1]: completely abolished | IC50 ([2]; LMPTP-A, OMFP substrate, method of Example 2, read-out: IC50): 801 to 5000 nM | IC50 ([2]; Table 2 quinoline series, S sample (synthesized de novo), read-out: LMPTP (OMFP) (IC50)): 1680 nM | IC50 ([2]; Table 5, n = 4, AID686962, AID743307, read-out: LMPTP IC50): 1680 ± 150 nM
